SMILES strings stand for the structures. Where a name gives a salt, the structure may show the parent alone.

The target in the first test is T1, soluble human BACE (Homo sapiens, UniProt P56817).
T1 construct: cells secreting human recombinant soluble BACE; made in house; conditioned medium
T1 sequence (P56817 46-457 limits assumed): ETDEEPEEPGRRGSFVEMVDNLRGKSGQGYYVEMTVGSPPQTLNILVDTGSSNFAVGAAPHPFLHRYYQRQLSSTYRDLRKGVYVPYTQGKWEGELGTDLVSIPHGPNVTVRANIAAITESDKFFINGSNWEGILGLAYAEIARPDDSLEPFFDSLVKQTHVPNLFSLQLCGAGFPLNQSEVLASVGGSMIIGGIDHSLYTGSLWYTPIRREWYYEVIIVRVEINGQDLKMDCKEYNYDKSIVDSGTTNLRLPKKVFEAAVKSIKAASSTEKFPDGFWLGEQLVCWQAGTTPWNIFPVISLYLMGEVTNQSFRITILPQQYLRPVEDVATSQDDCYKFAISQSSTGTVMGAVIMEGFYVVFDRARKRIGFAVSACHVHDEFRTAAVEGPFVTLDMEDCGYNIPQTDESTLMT
The test can be described thus: BACE activity Cell Free Assay (ELISA of cleaved synthetic APP substrate). Type of test: biochemical.
Settings: not given
As to `CC(C)n1ncc2ccc(CN3CC[C@]4(C=CC(=O)N4c4cnccn4)C[C@@H]3C)cc21` [#130, (5R,7S)-8-[(1-isopropyl-1H-indazol-6-yl)methyl]-7-methyl-1-pyrazin-2-yl-1,8-diazaspiro[4.5]dec-3-en-2-one], the IC50 was in the range of 10 to 100 µM.
For `C[C@H]1C[C@@]2(C=CC(=O)N2c2cnccn2)CCN1Cc1scnc1CC1CCC1` [#131, (5R,7S)-8-([4-(cyclobutylmethyl)-1,3-thiazol-5-yl]methyl)-7-methyl-1-pyrazin-2-yl-1,8-diazaspiro[4.5]dec-3-en-2-one], the IC50 is 1 to 10 µM.
`CC(C)Oc1cc(CN2CC[C@]3(C=CC(=O)N3c3cnccn3)C[C@@H]2C)ccc1O` [#132, (5R,7S)-8-(4-hydroxy-3-isopropoxybenzyl)-7-methyl-1-pyrazin-2-yl-1,8-diazaspiro[4.5]dec-3-en-2-one] returned an IC50 of 0.001 to 1 µM.
In the case of `CCCn1nccc1CN1CC[C@]2(C=CC(=O)N2c2cnccn2)C[C@@H]1C` [#133, (5R,7S)-7-methyl-8-[(1-propyl-1H-pyrazol-5-yl)methyl]-1-pyrazin-2-yl-1,8-diazaspiro[4.5]dec-3-en-2-one], the IC50 was in the range of 100 to 300 µM.
On the same count and under the same terms, with `C[C@H]1C[C@@]2(C=CC(=O)N2c2cnccn2)CCN1Cc1ccnn1CC(F)(F)F` [#134, (5R,7S)-7-methyl-1-pyrazin-2-yl-8-[(1-(2,2,2-trifluoroethyl)-1H-pyrazol-5-yl]methyl]-1,8-diazaspiro[4.5]dec-3-en-2-one] the figure was 100 to 300 µM.
Take `Cc1cccc(N2C(=O)C=C[C@]23CCN(Cc2ccc(O)c(OC(C)C)c2)[C@@H](C)C3)n1` [#135, (5R,7S)-8-(4-hydroxy-3-isopropoxybenzyl)-7-methyl-1-(6-methylpyridin-2-yl)-1,8-diazaspiro[4.5]dec-3-en-2-one]: the IC50 fell in the range of 0.001 to 1 µM.
The compound `Cc1cccc(N2C(=O)C=C[C@]23CCN(Cc2ccc(O)c(-c4sccc4C)c2)[C@@H](C)C3)n1` [#136, (5R,7S)-8-[4-hydroxy-3-(3-methyl-2-thienyl)benzyl]-7-methyl-1-(6-methylpyridin-2-yl)-1,8-diazaspiro[4.5]dec-3-en-2-one] had an IC50 of 0.001 to 1 µM.
On to `Cc1cccc(N2C(=O)C=C[C@]23CCN(Cc2scnc2CC2CCC2)[C@@H](C)C3)n1` [#137, (5R,7S)-8-{[4-(cyclobutylmethyl)-1,3-thiazol-5-yl]methyl}-7-methyl-1-(6-methylpyridin-2-yl)-1,8-diazaspiro[4.5]dec-3-en-2-one], for which the IC50 lay in the range of 1 to 10 µM.
As for `CCCn1nccc1CN1CC[C@]2(C=CC(=O)N2c2cccc(C)n2)C[C@@H]1C` [#138, (5R,7S)-7-methyl-1-(6-methylpyridin-2-yl)-8-[(1-propyl-1H-pyrazol-5-yl)methyl]-1,8-diazaspiro[4.5]dec-3-en-2-one], the IC50 is 10 to 100 µM.
Compound `Cc1cccc(N2C(=O)C=C[C@]23CCN(Cc2ccc4cnn(C(C)C)c4c2)[C@@H](C)C3)n1` [#139, (5R,7S)-8-[(1-isopropyl-1H-indazol-6-yl)methyl]-7-methyl-1-(6-methylpyridin-2-yl)-1,8-diazaspiro[4.5]dec-3-en-2-one] yielded an IC50 of 100 to 300 µM.
As to `C[C@H]1C[C@@]2(C=CC(=O)N2c2cnccn2)CCN1Cc1ccc(O)c(Cl)c1` [#140, (5R,7S)-8-(3-chloro-4-hydroxybenzyl)-7-methyl-1-pyrazin-2-yl-1,8-diazaspiro[4.5]dec-3-en-2-one, ammonium salt], the IC50 lay within 10 to 100 µM.
Take `Cc1cccc(N2C(=O)C=C[C@]23CCN(Cc2ccc(O)c(Cl)c2)[C@@H](C)C3)n1` [#141, (5R,7S)-8-(3-chloro-4-hydroxybenzyl)-7-methyl-1-(6-methylpyridin-2-yl)-1,8-diazaspiro[4.5]dec-3-en-2-one, ammonium salt]: the IC50 lay within 1 to 10 µM.
On to `CC(C)Cc1ocnc1CN1CC[C@]2(C=CC(=O)N2c2cccc(F)c2)C[C@@H]1C` [#200], for which the IC50 was in the range of 1 to 10 µM.

The test is the same for the next values; noted with them: Table 4; cell free, soluble human BACE, pH 4.5, 3 μM substrate; read-out: BACE Activity (Cell Free Assay IC50).
On to `CC(C)Oc1cccc(CN2CC[C@]3(C=CC(=O)N3c3cccc(C(F)(F)F)n3)C[C@@H]2C)c1` [#125], for which the IC50 was in the range of 10 to 100 µM.
Consider `Cc1cncc(N2C(=O)C=C[C@]23CCN(Cc2cccc(OC(C)C)c2)[C@@H](C)C3)n1` [#126], for which the half-inhibitory concentration (IC50) lay within 10 to 100 µM.

These data come from patent publication US20110224231A1, “Novel Lactams as Beta Secretase Inhibitors” (Pfizer Inc., priority 2008, published 2011).
